What was measured:
[1] = system: Primary human T cells and Jurkat T cells; assay: In vitro studies PP2A and CTLA4 (Example 2); assay type: cell-based
Description: Primary human T cells and Jurkat T cells are treated with LB-100 and T-cell activation levels measured. LB-100 increases activation of the T cells.
Primary human T cells and Jurkat T cells are treated with LB-100 and PP2A:CTLA-4 interaction is assessed. LB-100 decreases the interaction of PP2A and CTLA-4.
Primary human T cells and Jurkat T cells are treated with LB-100 and levels of PP2A phosphorylation are measured. LB-100 increases phosphorylation in the T cells.

B16F10 cells = assay: B16F10 melanoma tumor prevention model; assay type: in vivo, mouse; details: day 15 after tumor implantation
Description: LB-100 and aPD-1 enhance anti-tumor activity in B16 melanoma without histologic evidence of autoimmunity: It was next determined whether LB-100/aPD-1 combination was effective against other aPD-1 resistant tumor. In a tumor prevention model, 6-8 weeks old C57BL/6 mice were randomized into four treatment groups: PBS, LB-100, aPD-1 and combination. B16F10 cells (2.5×10^5) were inoculated 2 days after initiation of treatment subcutaneously in the right thoracic flank. Treatments were administered every two days following survival (FIG. 34A). By day 15 after tumor implantation, there was no difference between control and the single agent arms.
Syngeneic tumor models—Mice were maintained and experiments were conducted with the approval of the NINDS Animal Use and Care Committees. For CT26 tumors: BALB/c (6-8 wk old) were purchased from Charles River Laboratory. CT26 cells (0.5×10^6) were injected into the right flank subcutaneously. […] Treatments were given every 2 days for 30 days. […]

Naïve CD4 cells = assay: T cell stimulation and skewing of naive CD4 cells; assay type: cell-based, mouse
Description: Naïve CD4 cells were isolated from mice splenocytes and activated in vitro with anti-CD3 and CD28 in the presence of TGF-β or IL4 to induce development of Treg or Th2 CD4+ cells respectively. After 72 hours, intranuclear expressions of Foxp3 or GATA3 were quantitated by flow cytometry to determine percentage of Treg or Th2 cells respectively. […] In addition, the relative proportion of Th2 and Th1 CD4+ cells was quantified by labeling for T-bet. […] Next, the functional consequence of Th1 CD4+ cell with LB-100 treatment was explored. […] This was shown with both intracellular staining (FIG. 38D) and measurement of cytokine secretion (FIG. 38E-F).
T cell stimulation and skewing—Naïve CD4 cells were isolated from mice splenocytes (StemCell). Cells were activated for 3 days using immobilized anti-CD3 (10 ug/ml) and soluble anti-CD28 (2 ug/ml). Skewing conditions were as follows: TH1, 1 .ig/mL anti-IL4, 5 ng/mL IL2, and 10 ng/mL IL12; TH2, 1 .ig/mL anti-IFN-7, 5 ng/mL IL2, and 10 ng/mL IL4; Treg, 1 .ig/mL anti-IFNγ, and 1 ig/mL anti-IL4, and 2 ng/mL TGFβ1. Bead-based multianalyte flow immunoassays (BD Bioscience) were used to measure cytokine production in the supernatant per manufacturer's instruction. Absolute cell numbers were quantified with flow cytometry using counting beads (Biolegend).

[2] = system: tumor infiltrating lymphocytes; assay: Flow cytometry of tumor infiltrating lymphocytes, spleen and draining lymph node in CT26-bearing mice; assay type: in vivo, mouse
Description: The treatment effect was assessed on tumor infiltrating lymphocytes (FIGS. 23A-B). CT26 tumor-bearing mice were treated with LB-100 and/or anti-PD-1 antibodies as above. After 12 days of treatment, tumors were analyzed by FACS. […] In addition, given the known importance of PP2A in Treg, the effect of LB-100 and/or anti-PD-1 treatment was examined on the amount of Tregs present in the tumor. […] This effect is similar in degree to the effect on Tregs depletion by anti-PD-1 or the combination.
Enhanced activation of lymphocytes with combination treatment: To address the cellular mechanism mediating tumor rejection by the LB-100/aPD-1 combination, the status of the immune system in the secondary lymphoid organs and in the tumor were examined. Mice were implanted with CT26 tumors and treated with LB-100 and/or aPD-1 as described above. On day 3, after two treatments, the spleens, tumor draining lymph nodes (dLN) and tumors were harvested and analyzed by flow cytometry (FIG. 26-27). In the secondary lymphoid tissue, a greater activation of CD8+ T cells in mice treated with the combination regimen compared to controls was observed, as indicated by greater frequency of CD44+CD62L-CD8+ T cells (FIG. 26A-C). […] There was no difference in frequency of CD44+CD62L− subset in CD4+ T cells in both the spleen and dLN (FIGS. 28A and 29A). Immune check point markers, including expression of PD-1, CTLA4, TIM3 and Ox40 on CD8+ and CD4+ T cells were examined in the tumor draining lymph node and spleen (FIGS. 28 and 29).
Isolation of TILs—Mice were injected in the right thoracic flank with 0.5×10^6 CT26 cells and treated as above after tumors reached between 50-100 mm^3. After 2 treatments, mice were sacrificed and tumors excised. Tumors were subjected to mechanical disruption using a GentleMACS Dissociator (Miltenyi Biotec) in presence of enzymatic digestion using Tumor Dissociation Kit (Miltenyi Biotec). […] Cells were analyzed by flow cytometry (LSRII; BD Bioscience). […]

CN1CCN(C(=O)C2C(C(=O)O)[C@H]3CC[C@@H]2O3)CC1 (stereo partly shown) [LB-100]
PP2A:CTLA-4 interaction [1]: decreases | T-cell activation levels [1]: increases | levels of PP2A phosphorylation in the T cells [1]: increases | tumor size, single agent arms vs control (B16F10 cells): no difference | frequency of GATA3 expressing cells relative to Tbet expressing cells (Naïve CD4 cells): decreased significantly | induction of Foxp3 by TGF-β (Naïve CD4 cells; 72 hours, dose dependent): significantly impaired | induction of GATA3 by IL-4 (Naïve CD4 cells; 72 hours, dose dependent): significantly impaired | TNF-α and IL2 secretion (Naïve CD4 cells; Th1 and Th2 conditions): increased | IFN-γ expression (Naïve CD4 cells; Th1 and Th2 skewing conditions): dose dependent increase | Secretion of IL4 (Naïve CD4 cells; Th2 conditions): decreased | Tregs in the tumor ([2]; after 12 days of treatment, control 14.7): 2.1% | CD44+CD62L-CD8+ T cells in the spleen ([2]; day 3, after two treatments, control 13.0): 16.6% | PD-1 expression in CD4+ and CD8+ TILs ([2]; mouse, in vivo): did not further alter PD-1 expression

From patent US12168008B2, “Oxabicycloheptanes for modulation of immune response” (LIXTE BIOTECHNOLOGY, INC., priority 2016, dated 2024)
